Here are results for 8 compounds from patent publication US20180000085A1, “USE OF PICOLINAMIDE COMPOUNDS WITH FUNGICIDAL ACTIVITY” (DOW AGROSCIENCES LLC, priority 2014, published 2018).

Molecules are shown by their SMILES.

The test system of one assay is Phakopsora pachyrhizi. Briefly: Asian soybean rust (PHAKPA) disease control. Type of assay: in vivo. On the set-up: key: A: > 80; B: ≤ 80; C: Not Tested; D: No Activity Observed in the Reported Assay. To be noted: 25 ppm; for PHAKPA disease control, 1DP: 1 Day Protectant; for PHAKPA disease control, 3DC: 3 Day Curative.
For a further assay, the system named is Cercospora beticola. Briefly: Leaf spot of sugar beets (CERCBE) disease control. Type of assay: in vivo. To be noted: 100 ppm; 1 Day Protectant; sugar beet. How it is done: All fungicides were evaluated using the aforementioned method for their activity vs. all target diseases, unless stated otherwise. Wheat leaf blotch and brown rust activity were also evaluated using track spray applications, in which case the fungicides were formulated as EC formulations, containing 0.1% Trycol 5941 in the spray solutions. Wheat plants (variety Yuma) were grown from seed in a greenhouse in 50% mineral soil/50% soil-less Metro mix until the first leaf was fully emerged, with 7-10 seedlings per pot. These plants were inoculated with an aqueous spore suspension of Zymoseptoria tritici either prior to or after fungicide treatments. After inoculation the plants were kept in 100% relative humidity (one day in a dark dew chamber followed by two to three days in a lighted dew chamber at 20° C.) to permit spores to germinate and infect the leaf. The plants were then transferred to a greenhouse set at 20° C. for disease to develop. When disease symptoms were fully expressed on the 1st leaves of untreated plants, infection levels were assessed on a scale of 0 to 100 percent disease severity. Percent disease control was calculated using the ratio of disease severity on treated plants relative to untreated plants. Example F: Evaluation of Fungicidal Activity: Leaf Spot of Sugar Beets (Cercospora beticola; Bayer Code CERCBE) Sugar beet plants (variety HH88) were grown in soil-less Metro mix and trimmed regularly to maintain a uniform plant size prior to test. Plants were inoculated with a spore suspension 24 hr after fungicide treatments. Inoculated plants were kept in a dew chamber at 22° C. for 48 hr then incubated in a greenhouse set at 24° C. under a clear plastic hood with bottom ventilation until disease symptoms were fully expressed. Fungicide formulation, application and disease assessment on the sprayed leaves followed the procedures as described in the Example A.

As to `COc1ccnc(C(=O)N[C@@H](C)C(=O)O[C@@H](C)[C@@H](CC(C)C)Oc2ccccc2)c1OCOC(C)=O` [Cmpd 557], in the assay with Phakopsora pachyrhizi, the “PHAKPA disease control, 1DP” value is listed as “A (> 80)” and the “PHAKPA disease control, 3DC” value is “B (≤ 80)”. Besides, the “CERCBE disease control, 1DP” value with Cercospora beticola is “B (≤ 80)”.

In the case of `COc1ccnc(C(=O)N[C@H](C)C(=O)O[C@H](C)[C@@H](Oc2ccccc2)c2ccccc2)c1OCOC(C)=O` [Cmpd 549], in the assay with Phakopsora pachyrhizi, the “PHAKPA disease control, 1DP” value was “D” and the “PHAKPA disease control, 3DC” value is “D”. Also, the “CERCBE disease control, 1DP” value in the assay on Cercospora beticola is listed as “B (≤ 80)”.

Turning to `COc1ccnc(C(=O)N[C@@H](C)C(=O)O[C@H](C)[C@@H](Oc2ccccc2)c2ccccc2)c1OCOC(C)=O` [Cmpd 547], in the assay on Phakopsora pachyrhizi, the “PHAKPA disease control, 1DP” value is “B (≤ 80)” and the “PHAKPA disease control, 3DC” value is given as “D”. For the same compound, the “CERCBE disease control, 1DP” value with Cercospora beticola is listed as “B (≤ 80)”.

Regarding `COc1ccnc(C(=O)N[C@H](C)C(=O)O[C@H](C)[C@@H](Oc2ccccc2)C(C)C)c1OCOC(C)=O` [Cmpd 548], in the assay on Phakopsora pachyrhizi, the “PHAKPA disease control, 1DP” value is given as “B (≤ 80)” and the “PHAKPA disease control, 3DC” value is “D”. Also, the “CERCBE disease control, 1DP” value with Cercospora beticola is listed as “B (≤ 80)”.

For `COc1ccnc(C(=O)N[C@H](C)C(=O)O[C@H](C)[C@H](Oc2ccccc2)C(C)C)c1OCOC(C)=O` [Cmpd 560], in the assay on Phakopsora pachyrhizi, the “PHAKPA disease control, 1DP” value is reported as “B (≤ 80)” and the “PHAKPA disease control, 3DC” value is “D”. In addition, the “CERCBE disease control, 1DP” value with Cercospora beticola is on record as “B (≤ 80)”.

Take `COc1ccnc(C(=O)N[C@@H](C)C(=O)O[C@@H](C)[C@@H](Oc2ccccc2)C(C)C)c1OCOC(C)=O` [Cmpd 552]: in the assay with Phakopsora pachyrhizi, the “PHAKPA disease control, 1DP” value is “A (> 80)” and the “PHAKPA disease control, 3DC” value was “B (≤ 80)”. For the same compound, the “CERCBE disease control, 1DP” value with Cercospora beticola is on record as “B (≤ 80)”.

Consider `COc1ccnc(C(=O)N[C@H](C)C(=O)O[C@@H](C)[C@H](Oc2ccccc2)C(C)C)c1OCOC(C)=O` [Cmpd 558], for which, in the assay with Phakopsora pachyrhizi, the “PHAKPA disease control, 1DP” value is reported as “B (≤ 80)” and the “PHAKPA disease control, 3DC” value is “D”. Further, the “CERCBE disease control, 1DP” value in the assay with Cercospora beticola is on record as “B (≤ 80)”.

Regarding `COc1ccnc(C(=O)N[C@H](C)C(=O)O[C@@H](C)[C@@H](Oc2ccccc2)C(C)C)c1OCOC(C)=O` [Cmpd 559], in the assay with Phakopsora pachyrhizi, the “PHAKPA disease control, 1DP” value is given as “B (≤ 80)” and the “PHAKPA disease control, 3DC” value was “B (≤ 80)”. For the same compound, the “CERCBE disease control, 1DP” value in the assay with Cercospora beticola is recorded as “B (≤ 80)”.
